Assays:
[1] = target: T1, 5-hydroxytryptamine receptor 1A (Homo sapiens, UniProt P08908); experiment: Radioligand Labeled Binding Assay
T1 sequence (P08908 whole entry): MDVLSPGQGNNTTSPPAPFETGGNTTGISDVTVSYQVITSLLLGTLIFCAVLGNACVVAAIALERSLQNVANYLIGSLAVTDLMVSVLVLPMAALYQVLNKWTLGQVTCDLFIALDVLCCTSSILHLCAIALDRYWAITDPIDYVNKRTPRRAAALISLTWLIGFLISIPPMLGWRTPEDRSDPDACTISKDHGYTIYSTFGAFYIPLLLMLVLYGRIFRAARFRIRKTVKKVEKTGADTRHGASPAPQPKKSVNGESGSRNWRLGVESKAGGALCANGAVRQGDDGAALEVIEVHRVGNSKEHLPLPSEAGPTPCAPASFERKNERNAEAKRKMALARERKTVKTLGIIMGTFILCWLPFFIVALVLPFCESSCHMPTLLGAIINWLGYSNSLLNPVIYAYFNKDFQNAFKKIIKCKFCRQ
Description: (§1) IC50 values for each test compound were determined from nonlinear regression analysis of data collected from ligand binding experiments. The inhibition constant (Ki) was calculated from IC50 value by the Cheng and Prusoff equation.

[2] = target: 5-hydroxytryptamine receptor 2A (Rattus norvegicus, UniProt P14842); experiment: Radioligand Labeled Binding Assay
Description: as §1

Chain of 5-hydroxytryptamine receptor 2A (P14842 whole entry): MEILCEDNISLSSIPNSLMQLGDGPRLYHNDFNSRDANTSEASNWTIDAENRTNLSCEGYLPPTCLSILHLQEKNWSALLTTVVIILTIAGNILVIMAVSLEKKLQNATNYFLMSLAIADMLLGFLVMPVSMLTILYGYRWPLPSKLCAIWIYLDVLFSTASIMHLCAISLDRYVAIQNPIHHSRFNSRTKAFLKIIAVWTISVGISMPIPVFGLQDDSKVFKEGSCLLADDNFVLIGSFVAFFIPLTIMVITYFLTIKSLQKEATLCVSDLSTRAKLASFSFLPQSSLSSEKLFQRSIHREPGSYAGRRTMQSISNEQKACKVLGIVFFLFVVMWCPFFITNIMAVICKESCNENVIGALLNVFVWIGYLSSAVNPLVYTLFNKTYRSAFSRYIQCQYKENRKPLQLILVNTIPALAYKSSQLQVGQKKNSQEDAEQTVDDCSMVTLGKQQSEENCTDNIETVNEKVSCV

| Ki [1] [µM] | Ki [2] [µM] | Compound |
| --- | --- | --- |
| 0.279 | – | Cc1ccccc1N1CCN(CCCCCC(=O)NC2CCCc3ccccc32)CC1 (configuration not stated) |
| 0.00385 | – | CC(=O)c1ccccc1N1CCN(CCCCCC(=O)NC2CCCc3ccccc32)CC1 (configuration not stated) |
| 0.024 | – | O=C(CCCCCN1CCN(c2ccccc2O)CC1)NC1CCCc2ccccc21 (configuration not stated) |
| 0.096 | – | O=C(CCCCCN1CCN(c2ccccc2Cl)CC1)NC1CCCc2ccccc21 (configuration not stated) |
| 0.494 | – | NC(=O)c1ccccc1N1CCN(CCCCCC(=O)NC2CCCc3ccccc32)CC1 (configuration not stated) [2-{4-[5-(1,2,3,4-tetrahydronaphthalen-1-ylcarbamoyl)pentyl]piperazin-1-yl}benzamide] |

Second part, the compound before the results:

| Compound | Ki [1] [µM] | Ki [2] [µM] |
| --- | --- | --- |
| CSc1ccccc1N1CCN(CCCCCC(=O)NC2CCCc3ccccc32)CC1 (configuration not stated) | 0.0527 | – |
| COc1ccccc1N1CCN(CCCCCC(=O)NC2CCCc3ccccc32)CC1 (configuration not stated) | 0.0086 | 1.26 |
| O=C(CCCCCN1CCN(c2ccccc2)CC1)NC1CCCc2ccccc21 (configuration not stated) | 0.128 | – |
| CS(=O)(=O)c1ccccc1N1CCN(CCCCCC(=O)NC2CCCc3ccccc32)CC1 (configuration not stated) | 3.12 | – |
| N#Cc1ccccc1N1CCN(CCCCCC(=O)NC2CCCc3ccccc32)CC1 (configuration not stated) [6-[4-(2-cyanophenyl)piperazin-1-yl]-N-(1,2,3,4-tetrahydronaphthalen-1-yl)hexanamide] | 0.0166 | – |
| O=C(CCCCCN1CCN(c2ccccc2[N+](=O)[O-])CC1)NC1CCCc2ccccc21 (configuration not stated) [6-[4-(2-nitrophenyl)piperazin-1-yl]-N-(1,2,3,4-tetrahydronaphthalen-1-yl)hexanamide] | 0.183 | – |

Reference: BindingDB's records for doi:10.1021/jm070487n (Universita Degli Studi Di Bari, 2007)
